Source: patent publication US10358500B2, “Humanized antibodies that bind LGR5” (Bionomics Inc., priority 2014, dated 2019)

Key:
LGR5 [1] = assay: LGR5 expression in treated CRC cell lines by flow cytometry; format: cell-based; conditions: 1 um, 72 hrs
Description: A panel of CRC cell lines including DLD1, HCT116, LS174t, LoVo, SW48, SW480 and SW620 were treated with a PI3K/mTOR dual inhibitor (NVP) or 2 different cytotoxic agents including SN38 (active metabolite of Irinotecan) or 5FU (5 fluorouracil). Cells were treated with the above agents at 1 um and were harvested after 72 hrs. Cells were then stained with anti-LGR5 Mab conjugated to Alexa Fluor647 and the data were analyzed by flow cytometry using a FACScalibur.

PANC1 cancer stem cells = assay: limiting dilution re-implant of treated PANC1 tumors; format: in vivo, mice; conditions: gemcitabine alone
From the text: Tumors cells from these treatment groups were harvested, dissociated, pooled and re-implanted in a limiting dilution assay (500, 1500, 4500 or 13500 cells/animal) into a new cohort of CB.17 SCID mice and allowed to grow with no treatment.

AsPC-1 cancer stem cells = assay: limiting dilution experiment, AsPC-1 tumors; format: in vivo, mice; conditions: day 40 post treatment, gemcitabine single agent
LGR5 [2] = assay: LGR5 expression in treated pancreatic cell lines by flow cytometry; format: cell-based
Description: In addition to CRC cell lines to further expand the above findings, expression of LGR5 was investigated in a series of pancreatic cell lines treated with relevant standard of care including nab-paclitaxel, gemcitabine and taxol and also small molecule inhibitors targeting most relevant pathways in pancreatic cancer such as inhibitors of PI3K, MEK and GSK3β. The pancreatic cell lines that were tested include: AsPc1, HPAFII, PANC1, BxPC3, CFPAC, PANC10.05, Capan2 and SW1990.

CCc1c2c(nc3ccc(O)cc13)-c1cc3c(c(=O)n1C2)COC(=O)[C@]3(O)CC [SN38]
LGR5 expression by flow cytometry (LGR5 [1]; HCT116, LS174t, SW48, SW480 and especially SW620 cells): promoted LGR5 expression

Nc1ccn([C@@H]2O[C@H](CO)[C@@H](O)C2(F)F)c(=O)n1 [gemcitabine, reference compound]
frequency of engraftment (PANC1 cancer stem cells; PANC1, 4500 cells): 40%
frequency of engraftment (PANC1 cancer stem cells; PANC1, 13500 cells): 100%
percentage of tumor bearing mice (AsPC-1 cancer stem cells; AsPC-1, 4500 cells): 40%
percentage of tumor bearing mice (AsPC-1 cancer stem cells; AsPC-1, 13500 cells): 80%
LGR5 expression by flow cytometry (LGR5 [2]; PANC1): upregulates LGR5

O=c1[nH]cc(F)c(=O)[nH]1 [5FU, 5 fluorouracil]
LGR5 expression by flow cytometry (LGR5 [1]; any of the CRC lines (DLD1, HCT116, LS174t, LoVo, SW48, SW480, SW620)): did not induce LGR5 expression

CC(=O)O[C@H]1C(=O)[C@@]2(C)[C@H]([C@H](OC(=O)c3ccccc3)[C@]3(O)C[C@H](OC(=O)[C@H](O)[C@@H](NC(=O)c4ccccc4)c4ccccc4)C(C)=C1C3(C)C)[C@]1(OC(C)=O)CO[C@@H]1C[C@@H]2O [taxol]
LGR5 expression by flow cytometry (LGR5 [2]; HPAFII): increased LGR5 expression
